Measured values: ChEMBL document CHEMBL1201862, “PubChem BioAssay data set” (2004)
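Cells were grown in 96-well plates and exposed to each compound for 48 hours at five concentrations; endpoints were interpolated linearly between bracketing concentrations, or set to the highest concentration if not reached. GI50: concentration for 50% inhibition of growth.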 The source made the active and inactive calls. Cut-off read from the data, not from the text of the source: active = GI50 up to about 1.1 µM and inactive = higher.

Tests used:
Experiment in all cases: NCI tumour cell line growth inhibition, 48 h
RXF 393 = tested on: RXF 393
SNB-19 = tested on: SNB-19
MDA-N = tested on: MDA-N
UO-31 = tested on: UO-31
CAKI-1 = tested on: CAKI-1
NCI-H23 = tested on: NCI-H23
OVCAR-8 = tested on: OVCAR-8
SK-OV-3 = tested on: SK-OV-3
SF-268 = tested on: SF-268
MOLT-4 = tested on: MOLT-4
SW-620 = tested on: SW-620
LOX IMVI = tested on: LOX IMVI
NCI-H226 = tested on: NCI-H226
UACC-257 = tested on: UACC-257
K562 = tested on: K562
MDA-MB-435 = tested on: MDA-MB-435
HT-29 = tested on: HT-29
NCI/ADR-RES = tested on: NCI/ADR-RES
U-251 = tested on: U-251
SF-295 = tested on: SF-295

SMILES | GI50 (RXF 393) | GI50 (SNB-19) | GI50 (MDA-N) | GI50 (UO-31) | GI50 (CAKI-1) | GI50 (NCI-H23) | GI50 (OVCAR-8) | GI50 (SK-OV-3) | GI50 (SF-268) | GI50 (MOLT-4) | GI50 (SW-620) | GI50 (LOX IMVI) | GI50 (NCI-H226) | GI50 (UACC-257) | GI50 (K562) | GI50 (MDA-MB-435) | GI50 (HT-29) | GI50 (NCI/ADR-RES) | GI50 (U-251) | GI50 (SF-295)
CSc1c(C#N)c(S)n(-c2ccc(Cl)cc2)c(=O)c1C#N | 93.3 µM (inactive) | > 100 µM (inactive) | > 100 µM (inactive) | 27.9 µM (inactive) | > 100 µM (inactive) | 39.6 µM (inactive) | 74.1 µM (inactive) | > 100 µM (inactive) | > 100 µM (inactive) | 44.2 µM (inactive) | > 100 µM (inactive) | > 100 µM (inactive) | 48.9 µM (inactive) | > 100 µM (inactive) | 63 µM (inactive) | > 100 µM (inactive) | 99.3 µM (inactive) | 39.8 µM (inactive) | > 100 µM (inactive) | –
Cc1c(C(C)C)cc(OCCO)cc1C(C)C | 16.6 µM (inactive) | 66.2 µM (inactive) | 31.2 µM (inactive) | 67.1 µM (inactive) | 70.6 µM (inactive) | 42.3 µM (inactive) | 42.3 µM (inactive) | > 100 µM (inactive) | 35.5 µM (inactive) | 34.1 µM (inactive) | 71.9 µM (inactive) | 24.9 µM (inactive) | 34.8 µM (inactive) | 35.2 µM (inactive) | 41.7 µM (inactive) | 31.5 µM (inactive) | 26.6 µM (inactive) | 40 µM (inactive) | 40.6 µM (inactive) | 34.4 µM (inactive)
N=C(N)N/N=C/c1cnn(C(=N)N)c1 | > 100 µM (inactive) | > 100 µM (inactive) | > 100 µM (inactive) | > 100 µM (inactive) | > 100 µM (inactive) | > 100 µM (inactive) | > 100 µM (inactive) | > 100 µM (inactive) | > 100 µM (inactive) | > 100 µM (inactive) | > 100 µM (inactive) | > 100 µM (inactive) | > 100 µM (inactive) | 57.4 µM (inactive) | > 100 µM (inactive) | > 100 µM (inactive) | > 100 µM (inactive) | > 100 µM (inactive) | 91 µM (inactive) | > 100 µM (inactive)
O=S(=O)(c1ccccc1)c1cccc2c1NCCC2 | 27.7 µM (inactive) | 39.2 µM (inactive) | 47.2 µM (inactive) | 27.5 µM (inactive) | 27.9 µM (inactive) | – | 58.6 µM (inactive) | > 10 µM (inactive) | 72.1 µM (inactive) | 28.7 µM (inactive) | 40.7 µM (inactive) | 35.6 µM (inactive) | 49.9 µM (inactive) | 23.6 µM (inactive) | 35.6 µM (inactive) | 35.2 µM (inactive) | 37.8 µM (inactive) | 38.5 µM (inactive) | – | 31 µM (inactive)
Cc1ccc2c(c1)C(C1Cc3c(C)cccc3C1=O)OC2=O (stereo unspecified) | 55.3 µM (inactive) | > 100 µM (inactive) | > 100 µM (inactive) | > 100 µM (inactive) | > 100 µM (inactive) | > 100 µM (inactive) | > 100 µM (inactive) | > 100 µM (inactive) | > 100 µM (inactive) | > 100 µM (inactive) | > 100 µM (inactive) | > 100 µM (inactive) | 61.5 µM (inactive) | > 100 µM (inactive) | > 100 µM (inactive) | > 100 µM (inactive) | 96.6 µM (inactive) | 40.4 µM (inactive) | 78 µM (inactive) | > 100 µM (inactive)
C=CC/C(C(=O)OC)=C(/C(=O)OC)N(CCC)CCC | > 100 µM (inactive) | > 100 µM (inactive) | > 100 µM (inactive) | 94.8 µM (inactive) | > 100 µM (inactive) | > 100 µM (inactive) | > 100 µM (inactive) | > 100 µM (inactive) | > 100 µM (inactive) | 61.8 µM (inactive) | 76.7 µM (inactive) | > 100 µM (inactive) | > 100 µM (inactive) | > 100 µM (inactive) | 35.8 µM (inactive) | > 100 µM (inactive) | > 100 µM (inactive) | > 100 µM (inactive) | 59.4 µM (inactive) | > 100 µM (inactive)
Nc1nccc(Nc2ccc(S(N)(=O)=O)cc2)n1 | > 100 µM (inactive) | > 100 µM (inactive) | > 100 µM (inactive) | > 100 µM (inactive) | > 100 µM (inactive) | > 100 µM (inactive) | > 100 µM (inactive) | > 100 µM (inactive) | > 100 µM (inactive) | > 100 µM (inactive) | > 100 µM (inactive) | > 100 µM (inactive) | 35.2 µM (inactive) | > 100 µM (inactive) | > 100 µM (inactive) | > 100 µM (inactive) | > 100 µM (inactive) | > 100 µM (inactive) | > 100 µM (inactive) | > 100 µM (inactive)
O=C(CSc1nc2ccc(I)cc2c(=O)n1Cc1ccccc1)NN1C(=O)CSC1c1ccccc1 (stereo unspecified) | 25.8 µM (inactive) | 40.7 µM (inactive) | 35.7 µM (inactive) | – | 3.13 µM (inactive) | 18.3 µM (inactive) | 32.7 µM (inactive) | 24.1 µM (inactive) | 28.8 µM (inactive) | 29.2 µM (inactive) | 38 µM (inactive) | 19.5 µM (inactive) | 26.9 µM (inactive) | 20.4 µM (inactive) | 26.5 µM (inactive) | 27.2 µM (inactive) | 35 µM (inactive) | 26.5 µM (inactive) | 29.6 µM (inactive) | 27.1 µM (inactive)
CCCn1c2ccccc2c2ccc3c(c21)C(=O)C=CC3=O | 2.1 µM (inactive) | > 10 µM (inactive) | 2.65 µM (inactive) | 4.06 µM (inactive) | 2.78 µM (inactive) | 2.58 µM (inactive) | 2.54 µM (inactive) | > 10 µM (inactive) | > 6.12 µM (inactive) | 0.904 µM (active) | 1.16 µM (inactive) | > 10 µM (inactive) | 6.38 µM (inactive) | 1.78 µM (inactive) | 0.561 µM (active) | 2.3 µM (inactive) | > 10 µM (inactive) | 2.9 µM (inactive) | > 7.59 µM (inactive) | > 10 µM (inactive)
CCNCC(=O)Nc1ccc2c(c1)C(=O)c1ccc(NC(=O)CNCC)cc1C2=O | 2.53 µM (inactive) | 2.7 µM (inactive) | 4.59 µM (inactive) | 3.21 µM (inactive) | 8.77 µM (inactive) | 3.43 µM (inactive) | 2.18 µM (inactive) | 2.76 µM (inactive) | 3.27 µM (inactive) | – | 2.99 µM (inactive) | 2.26 µM (inactive) | 5.51 µM (inactive) | 5.98 µM (inactive) | 1.78 µM (inactive) | 2.27 µM (inactive) | 2.45 µM (inactive) | 6.08 µM (inactive) | 1.72 µM (inactive) | 3.33 µM (inactive)
Nc1nc(N)c(N=Nc2ccc([As](=O)(O)O)c(O)c2)c(N)n1 | 7.48 µM (inactive) | 43.2 µM (inactive) | 0.839 µM (active) | > 88.9 µM (inactive) | 58.3 µM (inactive) | 7.57 µM (inactive) | 13.7 µM (inactive) | 36.4 µM (inactive) | 55.8 µM (inactive) | 3.63 µM (inactive) | 4.89 µM (inactive) | 6.67 µM (inactive) | > 100 µM (inactive) | 91.6 µM (inactive) | 11.1 µM (inactive) | 0.82 µM (active) | 3.75 µM (inactive) | > 100 µM (inactive) | 22.9 µM (inactive) | 33.7 µM (inactive)
CC1(C)OC[C@@]2([C@@H]3CC[C@@H](C3)C2(C)C)N1O | > 100 µM (inactive) | > 100 µM (inactive) | > 100 µM (inactive) | – | > 100 µM (inactive) | > 100 µM (inactive) | > 100 µM (inactive) | > 100 µM (inactive) | > 100 µM (inactive) | > 100 µM (inactive) | > 100 µM (inactive) | 92 µM (inactive) | > 100 µM (inactive) | > 100 µM (inactive) | > 100 µM (inactive) | > 100 µM (inactive) | > 100 µM (inactive) | > 100 µM (inactive) | 88.9 µM (inactive) | > 100 µM (inactive)
COc1ccc2c(c1)CC[C@@H]1C2CC[C@]2(C)C(=C=CP(=O)(O)O)CCC12 (stereo partly specified) | > 100 µM (inactive) | > 100 µM (inactive) | > 100 µM (inactive) | – | > 100 µM (inactive) | > 100 µM (inactive) | > 100 µM (inactive) | > 100 µM (inactive) | > 100 µM (inactive) | – | > 100 µM (inactive) | > 100 µM (inactive) | > 100 µM (inactive) | > 100 µM (inactive) | > 100 µM (inactive) | > 100 µM (inactive) | > 100 µM (inactive) | > 100 µM (inactive) | > 100 µM (inactive) | > 100 µM (inactive)
CCOC(=O)c1nnsc1NN=C(C)C | > 100 µM (inactive) | – | > 100 µM (inactive) | > 100 µM (inactive) | > 100 µM (inactive) | > 100 µM (inactive) | > 100 µM (inactive) | > 100 µM (inactive) | > 100 µM (inactive) | > 100 µM (inactive) | > 100 µM (inactive) | > 100 µM (inactive) | > 100 µM (inactive) | > 100 µM (inactive) | > 100 µM (inactive) | > 100 µM (inactive) | > 100 µM (inactive) | > 100 µM (inactive) | > 100 µM (inactive) | > 100 µM (inactive)
